Marks after values point to notes of the source that are not given here.
Columns and labels:
[1] = tested on: SNAP-Halo-tag; assay: Increase in absorbance and fluorescence on binding to SNAP-HaloTag protein in vitro; type: biochemical; conditions: for Φ / ε^protein / λabs / λem: binding with SNAP-Halo-tag; for F/F0: ± s.e.m.
Experimental: Measurement of Increase in Absorbance and Fluorescence.
SNAP-HaloTag protein were used as a 85 μM-200 μM solution in 75 mM NaCl, 50 mM TRIS-HCl, pH 7.4 with 50% v/v glycerol (TBS-glycerol). SNAPTag and HaloTag based fluorogenic probes were diluted to 1.0-2.0 μM in 10 mM HEPES, pH 7.3. Then an aliquot of SNAPTag/HaloTag protein (1.5-2.0 equiv) was added and the resulting mixture was incubated until consistent absorbance signal was observed (˜60 min).
(§1) SDS (10% in 10 mM HEPES) was added with dilution of 100 folds as a control group. Absorbance and fluorescence measurements were performed in 96-well plate (Thermos Fisher) with optical bottom.

[2] = tested on: U2OS FlpIn Halo-SNAP-NLS expressing cells; assay: No-wash live-cell confocal imaging, nuclear versus cytosol signal; type: cell-based; conditions: for Fnuc./Fcyt.: average ratio between nuclear signal (U2OS FlpIn Halo-SNAP-NLS expressing cells) and cytosol signal (normal U2OS cell), ± s.e.m.; for nuclei to cytosol signal ratio (Fnuc/Fcyt): no-wash live-cell imaging, 250 nM for MaP555-SNAP and MaP700-Halo; for nuclei to cytosol signal ratio (Fnuc/Fcyt) / signal and background in no-wash live-cell imaging: U2OS cells; for time to staining / saturation / completion of labeling: nuclear localized HaloTag in U2OS cells, 250 nM for MaP510-Halo and MaP700-Halo; for signal and background in no-wash live-cell imaging: no washing
Source text: Self-labeling protein tags such as SNAP-tag and HaloTag are an efficient approach to attach synthetic fluorophores to proteins in living cells. The main challenge when using these tags for live-cell imaging is the low cell permeability of most fluorescent probes used for labeling and high background signal resulting from their unspecific binding. SNAP-tag fusion proteins can be specifically labeled with different fluorophores using appropriate O^6-benzlyguanine derivatives. A 6-TAMRA based probe (150) for SNAP-tag has been previously introduced for live-cell imaging, but its low cell-permeability and lack of fluorogenicity requires the use of high concentrations (5 μM) and repeated washing steps to remove excess and non-specifically bound probe. To address these problem, the inventors coupled fluorophores 132-135 to O^6-benzylguanine to obtain probes 152, 154, 156, and 158. […] The inventors then examined the performance of probes 150, 152, 154, 156, and 158 in live-cell imaging, in which U2OS cells stably expressing a nuclear localized SNAP-Halo fusion protein were co-cultured with regular U2OS cells not expressing any protein tags. […] Furthermore, the kinetics of labeling of nuclear localized SNAP-tag with MaP555-SNAP were much faster than those of control […]. The inventors then prepared the corresponding 6-TAMRA-based probes 151, 153, 155, 157, and 159 for HaloTag. As for SNAP-tag, the probe with the largest enhancement in absorbance (16-fold) and fluorescence intensity (35-fold) in in vitro assays was based on the N,N-dimethylsulfamide derivative 159 (abbreviated as MaP555-Halo in the following). […] The excellent performance of MaP555-SNAP and MaP555-Halo in live-cell imaging experiments support the inventors' assumption that establishing a dynamic equilibrium between the fluorescent zwitterion and the more hydrophobic spirolactam enables the generation of highly cell-permeable and fluorogenic probes for live-cell imaging.
Generation of U2OS FlpIn Halo-SNAP-NLS Cell Lines
The Flp-In™ System (ThermoFisher Scientific) was used to generated U2OS FlpIn Halo-SNAP-NLS expressing cells. pcDNA5-FRT-Halo-SNAP-NLS and pOG44 were co-transfected into the host cell line U2OS FLpIn (Malecki et al. Molecular and Cellular Biology 26, 4642 (2006)). Homologous recombination between the FRT sites in pcDNA5-FRT-Halo-SNAP-NLS and on the host cell chromosome, catalysed by the Flp recombinase expressed from pOG44, produced the U2OS FlpIn Halo-SNAP-NLS stably expressing cells.
Live-Cell Confocal Imaging
U2OS FlpIn Halo-SNAP-NLS expressing cells were grown in 96-well plate (Thermos Fisher) with optical bottom at 37° C. in a humidified 5% (vol/vol) CO2 environment. 50-500 nM probes and 2 μM verapamil were added and incubated for 1 h in DMEM media (Evrogen) containing 10% FBS. The cells were directly used to image without washing. Meanwhile, another group was imaged after being washed 2 times for 5 min with 1× phosphate buffered saline (PBS, pH 7.4) and DMEM supplemented with 10% FBS. Imaging was performed using Leica TCS SP8 confocal microscope. TMR- and Rhodamine B—, and Rhodamine 110-based probes were excited at 540 nm and the fluorescence signal was collected from 560-700 nm. Semi-Rhodamine-based probes were excited at 650 nm and the fluorescence signal was […] from 670-760 nm. Images were processed with Fiji (http://fiji.sc/wiki/index.php/Fiji) to obtain MIP (maximum intensity projections)

[3] = UV-Vis and fluorescence spectroscopy of free dye or probe in buffer or SDS; type: physicochemical; conditions: for Φ / ε^SDS: 0.1% SDS in HEPES buffer (pH 7.3); for ε: HEPES buffer (pH 7.3)
Experimental: UV-Vis and Fluorescence Spectroscopy
Spectroscopy was performed using 96-well plate (Thermo Fisher) with optical bottom. All measurements were taken at ambient temperature (25±2° C.). Absorption and fluorescence spectra were recorded on Spark® microplate reader (Tecan). Maximum absorption wavelength (λabs), and maximum emission wavelength (λem) were taken in 10 mM HEPES, pH 7.3 buffer unless otherwise noted; reported values for ε are averages (n=3). Normalized spectra are shown for clarity.
as §1

[4] = ratio of fluorescence intensities at 580 nm in the presence and absence of SNAP-Halo-tag
[5] = ratio of fluorescence intensities at 635 nm in the presence and absence of SNAP-Halo-tag
[6] = upon binding to HaloTag, in vitro
[7] = ratio of fluorescence intensities at 720 nm in the presence and absence of SNAP-Halo-tag

Structure (SMILES)	Φ [1]	ε^protein [1]	λabs [1]	λem [1]	F/F0 [1, 4]	Fnuc./Fcyt. [2]	Φ [3]	ε^SDS [3]	ε [3]	F/F0 [1, 5]	increase in fluorescence intensity [1, 6]	nuclei to cytosol signal ratio (Fnuc/Fcyt) [2]	time to staining / saturation / completion of labeling [2]	F/F0 [1, 7]	increase in absorbance [1, 6]	fluorogenicity on binding to tag or target protein ([1]; in vitro)	signal and background in no-wash live-cell imaging [2]
CN(C)c1ccc2c(c1)Oc1cc(N(C)C)ccc1C21c2cc(C(=O)NCCOCCOCCCCCCCl)ccc2C(=O)N1C#N [compound 153]	0.46	71,000 M^−1cm^−1	557 nm	580 nm	7.3 ± 0.8^e	10 ± 0.4^f	0.71	79,000 M^−1cm^−1	15,000 M^−1cm^−1	–	–	–	–	–	–	–	–
CN(C)c1ccc2c(c1)C(C)(C)c1cc(N(C)C)ccc1C21c2cc(C(=O)NCCOCCOCCCCCCCl)ccc2C(=O)N1S(=O)(=O)N(C)C [compound 167]	0.61^b/—	107,000 M^−1cm^−1	618 nm	635 nm	–	58 ± 3.9^f	–	7,200^c M^−1cm^−1	260 M⁻¹ cm⁻¹	1000 ± 44^e	1000 fold	58	≤ 5 min	–	–	–	–
CN1CCc2cc3c(cc21)[Si](C)(C)c1cc2c(cc1C31c3cc(C(=O)NCCOCCOCCCCCCCl)ccc3C(=O)N1C#N)CCN2C [compound 168]	0.24	52,000 M^−1cm^−1	700 nm	720 nm	–	47 ± 3.4^f	0.18	12,000^c M^−1cm^−1	340 M⁻¹ cm⁻¹	–	650 fold	47	≤ 10 min	650 ± 5.8^e	150 fold	–	–
CN(C)c1ccc2c(c1)C(C)(C)c1cc(N(C)C)ccc1C21c2cc(C(=O)NCCOCCOCCCCCCCl)ccc2C(=O)N1S(C)(=O)=O [compound 163]	0.50	121,000 M^−1cm^−1	618 nm	635 nm	–	24 ± 1.8^f	0.76	45,000^c M^−1cm^−1	1,600 M^−1cm^−1	179 ± 14^e	–	–	–	–	–	–	–
CN(C)c1ccc2c(c1)C(C)(C)c1cc(N(C)C)ccc1C21c2cc(C(=O)NCCOCCOCCCCCCCl)ccc2C(=O)N1S(N)(=O)=O [compound 165]	0.58^b/—	101,000 M^−1cm^−1	618 nm	635 nm	–	30 ± 4.5^f	–	8,300^c M^−1cm^−1	440 M⁻¹ cm⁻¹	611 ± 42^e	–	–	–	–	–	–	–
CN1CCc2cc3c(cc21)[Si](C)(C)c1cc2c(cc1C31OC(=O)c3ccc(C(=O)NCCOCCOCCCCCCCl)cc31)CCN2C [compound 37, reference compound]	0.27	83,000 M^−1cm^−1	695 nm	718 nm	–	6.7 ± 1.5^f	0.25	85,000^c M^−1cm^−1	38,000 M^−1cm^−1	–	–	–	–	7.5 ± 0.2^e	–	only modest fluorogenicity	relatively high background signal
CN(C)c1ccc2c(c1)Oc1cc(N(C)C)ccc1C21c2cc(C(=O)NCCOCCOCCCCCCCl)ccc2C(=O)N1S(C)(=O)=O [compound 155]	0.56	85,000 M^−1cm^−1	559 nm	580 nm	3.7 ± 0.4^e	12 ± 2.6^f	0.66	95,000 M^−1cm^−1	40,000 M^−1cm^−1	–	–	–	–	–	–	–	–
CN(C)c1ccc2c(-c3cc(C(=O)NCc4ccc(COc5nc(N)nc6[nH]cnc56)cc4)ccc3C(=O)[O-])c3ccc(=[N+](C)C)cc-3oc2c1 [compound 150, reference compound]	0.42	66,000 M^−1cm^−1	555 nm	578 nm	7.9 ± 0.2^e	1.8 ± 0.1^f	0.61	82,000 M^−1cm^−1	22,000 M^−1cm^−1	–	–	–	–	–	–	–	barely detectable signal

Source: patent publication US12326385B2, “Cell-permeable fluorogenic fluorophores” (MAX-PLANCK-GESELLSCHAFT ZUR FÖRDERUNG DER WISSENSCHAFTEN E. …, priority 2018, dated 2025)
